# Reference: patent US7935815B2, “Imidazoyl pyridine compounds and salts thereof” (Eisai R&D Management Co., Ltd., priority 2007, dated 2011)
# Tested on: Aβ42 production
# Assay: Quantification of Aβ peptide in culture of neurons from rat fetus brain (Aβ ELISA)
# Format: cell-based
# Settings: Rattus norvegicus, Neuron, 72 h, rat primary neuronal culture (embryonic day 18 Wistar rat cerebral cortex); cultured three days after addition of compound; Aβx-42 ELISA of the medium; read-out: Aβ42 production reducing effect IC50
# Method: Quantification of Aβ Peptide in Culture of Neurons from Rat Fetus Brain
# (1) Rat Primary Neuronal Culture
# Primary neuronal cultures were prepared from the cerebral cortex of embryonic day 18 Wistar rats (Charles River Japan, Yokohama, Japan). Specifically, the embryos were aseptically removed from pregnant rats under ether anesthesia. The brain was isolated from the embryo and immersed in an ice-cold L-15 medium (Invitrogen Corp. Cat #11415-064, Carlsbad, Calif., USA, or SIGMA L1518, for example). The cerebral cortex was collected from the isolated brain under a stereoscopic microscope. The cerebral cortex fragments collected were enzymatically treated in an enzyme solution containing 0.25% trypsin (Invitrogen Corp. Cat #15050-065, Carlsbad, Calif., USA) and 0.01% DNase (Sigma D5025, St. Louis, Mo., USA) at 37° C. for 30 minutes to disperse the cells. Here, the enzymatic reaction was stopped by adding inactivated horse serum to the solution. The enzymatically treated solution was centrifuged at 1,500 rpm for five minutes to remove the supernatant. 5 to 10 ml of a medium was added to the resulting cell mass. Neurobasal medium (Invitrogen Corp. Cat #21103-049, Carlsbad, Calif., USA) supplemented with 2% B27 supplement (Invitrogen Corp. Cat #17504-044, Carlsbad, Calif., USA), 25 μM 2-mercaptoethanol (2-ME, WAKO Cat #139-06861, Osaka, Japan), 0.5 mM L-glutamine (Invitrogen Corp. Cat #25030-081, Carlsbad, Calif., USA), and Antibiotics-Antimycotics (Invitrogen Corp. Cat #15240-062, Carlsbad, Calif., USA) was used as the medium (Neurobasal/B27/2-ME). However, the above Neurobasal medium not supplemented with 2-ME (Neurobasal/B27) was used for the assay. The cells were redispersed by mild pipetting of the cell mass to which the medium was added. The cell dispersion was filtered through a 40-μm nylon mesh (Cell Strainer, Cat #35-2340, Becton Dickinson Labware, Franklin Lakes, N.J., USA) to remove the remaining cell mass, and thus a neuronal cell suspension was obtained. The neuronal cell suspension was diluted with the medium and then plated in a volume of 100 μl/well at an initial cell density of 5×10^5 cells/cm^2 in a 96-well polystyrene culture plate pre-coated with poly-L or D-lysine (Falcon Cat #35-3075, Becton Dickinson Labware, Franklin Lakes, N.J., USA coated with poly-L-lysine using the method shown below, or BIOCOAT™ cell environments Poly-D-lysine cell ware 96-well plate, Cat #35-6461, Becton Dickinson Labware, Franklin Lakes, N.J., USA). Poly-L-lysine coating was carried out as follows. 100 μg/ml of a poly-L-lysine (SIGMA P2636, St. Louis, Mo., USA) solution was aseptically prepared with a 0.15 M borate buffer (pH 8.5). 100 μl/well of the solution was added to the 96-well polystyrene culture plate and incubated at room temperature for one or more hours or at 4° C. overnight or longer. The coated 96-well polystyrene culture plate was washed with sterile water four or more times, and then dried or rinsed with, for example, sterile PBS or medium, and used for cell plating. The plated cells were cultured in the culture plate at 37° C. in 5% CO2-95% air for one day. Then, the total amount of the medium was replaced with a fresh Neurobasal™/B27/2-ME medium, and then the cells were cultured for further three days.
# The drug was added to the culture plate on Day 4 of culture as follows. The total amount of the medium was removed from the wells, and 180 μl/well of Neurobasal medium not containing 2-ME and containing 2% B-27 (Neurobasal/B27) was added thereto. A solution of the test compound in dimethyl sulfoxide (hereinafter abbreviated as DMSO) was diluted with Neurobasal/B27 at 10-fold of the final concentration. 20 μl/well of the dilution was added to and sufficiently mixed with the medium. The final DMSO concentration was 1% or less. Only DMSO was added to the control group.
# The cells were cultured for three days after addition of the compound, and the total amount of the medium was collected. […]
row,Compound,IC50 [nM]
1,"COc1nc(/C=C/c2nc3n(n2)CCCC3c2cccc(C(F)(F)F)c2)ccc1-n1cnc(C)c1 (single isomer, unassigned; (-)) [Example 321, (−)-2-{(E)-2-[6-methoxy-5-(4-methyl-1H-imidazol-1-yl)pyridin-2-yl]vinyl}-8-(3-trifluoromethylphenyl)-5,6,7,8-tetrahydro[1,2,4]triazolo[1,5-a]pyridine]",23
2,"COc1cc(/C=C/c2nc3n(n2)CCC[C@H]3C2CCCCC2)ccc1-n1cnc(C)c1 (single isomer, unassigned) [Example 114, (−)-8-cyclohexyl-2-{(E)-2-[3-methoxy-4-(4-methyl-1H-imidazol-1-yl)phenyl]vinyl}-5,6,7,8-tetrahydro[1,2,4]triazolo[1,5-a]pyridine]",51
3,"COc1nc(/C=C/c2nc3n(n2)CCCC3c2ccccc2F)ccc1-n1cnc(C)c1 (single isomer, unassigned; (-)) [Example 327, (−)-8-(2-fluorophenyl)-2-{(E)-2-[6-methoxy-5-(4-methyl-1H-imidazol-1-yl)pyridin-2-yl]vinyl}-5,6,7,8-tetrahydro-[1,2,4]triazolo[1,5-a]pyridine]",20
4,"COc1nc(/C=C/c2nc3n(n2)CCC[C@@H]3c2cccc(F)c2)ccc1-n1cnc(C)c1 (single isomer, unassigned) [Example 189, (−)-8-(3-fluorophenyl)-2-{(E)-2-[6-methoxy-5-(4-methyl-1H-imidazol-1-yl)pyridin-2-yl]vinyl}-5,6,7,8-tetrahydro[1,2,4]triazolo[1,5-a]pyridine]",43
5,"COc1cc(/C=C/c2nc3n(n2)CC[C@H](O)[C@@H]3c2cc(F)c(F)c(F)c2)ccc1-n1cnc(C)c1 [Example 106, (7S,8R)-2-{(E)-2-[3-methoxy-4-(4-methyl-1H-imidazol-1-yl)phenyl]vinyl}-8-(3,4,5-trifluorophenyl)-5,6,7,8-tetrahydro-[1,2,4]triazolo[1,5-a]pyridin-7-ol]",39
6,"COc1nc(/C=C/c2nc3n(n2)CCC(C)N3c2ccc(F)cc2F)ccc1-n1cnc(C)c1 (stereo not shown) [Example 371, 4-(2,4-difluorophenyl)-2-{(E)-2-[6-methoxy-5-(4-methyl-1H-imidazol-1-yl)pyridin-2-yl]vinyl}-5-methyl-4,5,6,7-tetrahydro-[1,2,4]triazolo[1,5-a]pyrimidine]",27
7,"COc1nc(/C=C/c2nc3n(n2)CCC(C)N3c2ccccc2C(F)(F)F)ccc1-n1cnc(C)c1 (stereo not shown) [Example 373, 2-{(E)-2-[6-methoxy-5-(4-methyl-1H-imidazol-1-yl)pyridin-2-yl]vinyl}-5-methyl-4-(2-trifluoromethylphenyl)-4,5,6,7-tetrahydro-[1,2,4]triazolo[1,5-a]pyrimidine]",29
8,"COc1cc(/C=C/c2nc3n(n2)C[C@@H](C)C[C@@H]3c2ccc(F)cc2)ccc1-n1cnc(C)c1 [Example 99, (6S,8R)-8-(4-fluorophenyl)-2-{(E)-2-[3-methoxy-4-(4-methyl-1H-imidazol-1-yl)phenyl]vinyl}-6-methyl-5,6,7,8-tetrahydro-[1,2,4]triazolo[1,5-a]pyridine]",20
9,"COCc1cc(F)ccc1C1CCCn2nc(/C=C/c3ccc(-n4cnc(C)c4)c(OC)c3)nc21 (single isomer, unassigned; (-)) [Example 24, (−)-8-(4-fluoro-2-methoxymethylphenyl)-2-{(E)-2-[3-methoxy-4-(4-methyl-1H-imidazol-1-yl)phenyl]vinyl}-5,6,7,8-tetrahydro-[1,2,4]triazolo[1,5-a]pyridine]",12
10,"COc1nc(/C=C/c2nc3n(n2)CCCC3c2ccccc2C)ccc1-n1cnc(C)c1 (single isomer, unassigned; (-)) [Example 319, (−)-2-{(E)-2-[6-methoxy-5-(4-methyl-1H-imidazol-1-yl)pyridin-2-yl]vinyl}-8-(o-tolyl)-5,6,7,8-tetrahydro[1,2,4]triazolo[1,5-a]pyridine]",15
11,"COc1cc(/C=C/c2nc3n(n2)C[C@@H](O)C[C@@H]3c2cc(F)c(F)c(F)c2)ccc1-n1cnc(C)c1 [Example 108, (6S,8R)-2-{(E)-2-[3-methoxy-4-(4-methyl-1H-imidazol-1-yl)phenyl]vinyl}-8-(3,4,5-trifluorophenyl)-5,6,7,8-tetrahydro-[1,2,4]triazolo[1,5-a]pyridin-6-ol]",29
12,"COc1cc(/C=C/c2nc3n(n2)CCC[C@]3(O)c2cc(F)c(F)c(F)c2)c(F)cc1-n1cnc(C)c1 (single isomer, unassigned) [Example 96, (−)-2-{(E)-2-[2-fluoro-5-methoxy-4-(4-methyl-1H-imidazol-1-yl)phenyl]vinyl}-8-(3,4,5-trifluorophenyl)-5,6,7,8-tetrahydro[1,2,4]triazolo[1,5-a]pyridin-8-ol]",63
13,"COc1nc(/C=C/c2nc3n(n2)CCCC3c2c(F)cccc2C(F)(F)F)ccc1-n1cnc(C)c1 (single isomer, unassigned; (-)) [Example 331, (−)-8-(6-fluoro-2-trifluoromethylphenyl)-2-{(E)-2-[6-methoxy-5-(4-methyl-1H-imidazol-1-yl)pyridin-2-yl]vinyl}-5,6,7,8-tetrahydro-[1,2,4]triazolo[1,5-a]pyridine]",22
14,"COc1nc(/C=C/c2nc3n(n2)CCC[C@H]3c2cccc3ccccc23)ccc1-n1cnc(C)c1 (single isomer, unassigned) [Example 199, (+)-2-{(E)-2-[6-methoxy-5-(4-methyl-1H-imidazol-1-yl)pyridin-2-yl]vinyl}-8-(naphthalen-1-yl)-5,6,7,8-tetrahydro-[1,2,4]triazolo[1,5-a]pyridine]",23
15,"COc1nc(/C=C/c2nc3n(n2)CCCN3c2ccccc2)ccc1-n1cnc(C)c1 [Example 233, 2-{(E)-2-[6-methoxy-5-(4-methyl-1H-imidazol-1-yl)pyridin-2-yl]vinyl}-4-phenyl-4,5,6,7-tetrahydro-[1,2,4]triazolo[1,5-a]pyrimidine]",42
16,"COc1cc(/C=C/c2nc3n(n2)C[C@H](C)C[C@@H]3c2ccc(F)cc2)ccc1-n1cnc(C)c1 [Example 97, (6R,8R)-8-(4-fluorophenyl)-2-{(E)-2-[3-methoxy-4-(4-methyl-1H-imidazol-1-yl)phenyl]vinyl}-6-methyl-5,6,7,8-tetrahydro-[1,2,4]triazolo[1,5-a]pyridine]",38
17,"COc1nc(/C=C/c2nc3n(n2)CCCC3c2ccc(F)cc2)ccc1-n1cnc(C)c1 (single isomer, unassigned) [Example 173, (−)-8-(4-fluorophenyl)-2-{(E)-2-[6-methoxy-5-(4-methyl-1H-imidazol-1-yl)pyridin-2-yl]vinyl}-5,6,7,8-tetrahydro-[1,2,4]triazolo[1,5-a]pyridine]",37
18,"COc1nc(/C=C/c2nc3n(n2)CCC[C@H]3c2ccc(F)cc2Br)ccc1-n1cnc(C)c1 (single isomer, unassigned) [Example 185, (−)-8-(2-bromo-4-fluorophenyl)-2-{(E)-2-[6-methoxy-5-(4-methyl-1H-imidazol-1-yl)pyridin-2-yl]vinyl}-5,6,7,8-tetrahydro-[1,2,4]triazolo[1,5-a]pyridine]",34

# Same assay, conditions: rat primary neuronal culture (embryonic day 18 Wistar rat cerebral cortex); cultured three days after addition of compound; Aβx-42 ELISA of the medium; read-out: Aβ42 production reducing effect IC50
row,Compound,IC50 [nM]
1,"COc1nc(/C=C/c2nc3n(n2)C(C)CCC3c2ccccc2C(F)(F)F)ccc1-n1cnc(C)c1 (stereo not shown) [Example 362, 2-{(E)-2-[6-methoxy-5-(4-methyl-1H-imidazol-1-yl)pyridin-2-yl]vinyl}-5-methyl-8-(2-trifluoromethylphenyl)-5,6,7,8-tetrahydro-[1,2,4]triazolo[1,5-a]pyridine]",9
